Read-outs that look alike come from different tables or passages of the source.
How the values were obtained:
[1] = Storage stability test (40° C., 75% RH, open or closed, opaque containers, HPLC); conditions: for amount of remaining unaltered crystals, INITIAL: 40° C./75% RH storage test
From the text: HPLC conditions: a column, which is Inertsil ODS-3V manufactured by GL Sciences Inc., and has an inner diameter of 4.6 mm, a length of 15 cm, and a particle diameter of […] was used. […] The measurement wavelength used was 294 nm.

[2] = Test of storage stability against light (D65 fluorescent lamp irradiation)
[3] = Test of solubility in water

COc1c(N2C[C@H](CNC3CC3)[C@H](F)C2)c(F)cc2c(=O)c(C(=O)O)cn(CCF)c12.CS(=O)(=O)O (hydrate or solvate) [CRYSTALS OF METHANESULFONATE SALT, 7-{(3S,4S)-3-[(cyclopropylamino)methyl]-4-fluoropyrrolidine-1-yl}-6-fluoro-1-(2-fluoroethyl)-8-methoxy-4-oxo-1,4-dihydroquinoline-3-carboxylic Acid Methanesulfonate Salt]
melting point: 207 to 210 °C (dec.)

COc1c(N2C[C@H](CNC3CC3)[C@H](F)C2)c(F)cc2c(=O)c(C(=O)O)cn(CCF)c12.Cl [CRYSTALS A, 7-{(3S,4S)-3-[(cyclopropylamino)methyl]-4-fluoropyrrolidine-1-yl}-6-fluoro-1-(2-fluoroethyl)-8-methoxy-4-oxo-1,4-dihydroquinoline-3-carboxylic Acid Hydrochloride Salt (Crystals A)]
amount of remaining unaltered crystals, INITIAL [1]: 99.52
change in the amount of unaltered crystals at 4 weeks (in words) ([1]; 40° C./75% RH): no change
amount of remaining unaltered crystals, 4 WEEKS CLOSED CONDITION ([1]; 40° C./75% RH): 99.52
amount of remaining unaltered crystals, 4 WEEKS OPEN CONDITION ([1]; 40° C./75% RH): 99.51
amount of remaining unaltered crystals, total irradiation amount 110,000 lx·hrs [2]: 97.74
change in the amount of unaltered crystals at 110,000 lx·hrs (in words) [2]: almost no change
amount of remaining unaltered crystals, total irradiation amount 220,000 lx·hrs [2]: 97.43
amount of remaining unaltered crystals, total irradiation amount 530,000 lx·hrs [2]: 97.32
amount of remaining unaltered crystals, total irradiation amount 860,000 lx·hrs [2]: 96.32
amount of remaining unaltered crystals, total irradiation amount 1,280,000 lx·hrs ([2]; 1,280,000 lx·hrs): 91.33
change in the amount of crystals at 1,280,000 lx·hrs (in words) ([2]; 1,280,000 lx·hrs): found to decrease
amount of remaining unaltered crystals, INITIAL [2]: 98.68
SOLUBILITY [3]: >10 mg/mL

COc1c(N2C[C@H](CNC3CC3)[C@H](F)C2)c(F)cc2c(=O)c(C(=O)O)cn(CCF)c12.Cl.O [CRYSTALS B, 7-{(3S,4S)-3-[(cyclopropylamino)methyl]-4-fluoropyrrolidine-1-yl}-6-fluoro-1-(2-fluoroethyl)-8-methoxy-4-oxo-1,4-dihydroquinoline-3-carboxylic Acid Hydrochloride Salt Hydrate (Crystals B)]
amount of remaining unaltered crystals, INITIAL [1]: 99.59
change in the amount of unaltered crystals at 4 weeks (in words) ([1]; 40° C./75% RH): no change
amount of remaining unaltered crystals, 4 WEEKS CLOSED CONDITION ([1]; 40° C./75% RH): 99.65
amount of remaining unaltered crystals, 4 WEEKS OPEN CONDITION ([1]; 40° C./75% RH): 99.64
SOLUBILITY [3]: >10 mg/mL

COc1c(N2C[C@H](CNC3CC3)[C@H](F)C2)c(F)cc2c(=O)c(C(=O)O)cn(CCF)c12.Cl.O [CRYSTALS C, 7-{(3S,4S)-3-[(cyclopropylamino)methyl]-4-fluoropyrrolidine-1-yl}-6-fluoro-1-(2-fluoroethyl)-8-methoxy-4-oxo-1,4-dihydroquinoline-3-carboxylic Acid Hydrochloride Salt Hydrate (Crystals C)]
amount of remaining unaltered crystals, INITIAL [1]: 99.75
change in the amount of unaltered crystals at 2 weeks (in words) ([1]; 40° C./75% RH, 2 weeks): found to decrease
amount of remaining unaltered crystals, 2 WEEKS CLOSED CONDITION ([1]; 40° C./75% RH, 2 weeks): 99.37
amount of remaining unaltered crystals, 2 WEEKS OPEN CONDITION ([1]; 40° C./75% RH, 2 weeks): 99.47

COc1c(N2C[C@H](CNC3CC3)[C@H](F)C2)c(F)cc2c(=O)c(C(=O)O)cn(CCF)c12.CS(=O)(=O)O [CRYSTALS OF METHANESULFONATE SALT, 7-{(3S,4S)-3-[(cyclopropylamino)methyl]-4-fluoropyrrolidine-1-yl}-6-fluoro-1-(2-fluoroethyl)-8-methoxy-4-oxo-1,4-dihydroquinoline-3-carboxylic Acid Methanesulfonate Salt]
amount of remaining unaltered crystals, INITIAL [1]: 95.18
change in the amount of unaltered crystals at 4 weeks (in words) ([1]; 40° C./75% RH): no change
amount of remaining unaltered crystals, 4 WEEKS CLOSED CONDITION ([1]; 40° C./75% RH): 96.09
amount of remaining unaltered crystals, 4 WEEKS OPEN CONDITION ([1]; 40° C./75% RH): 95.89
amount of remaining unaltered crystals, total irradiation amount 110,000 lx·hrs [2]: 98.01
change in the amount of unaltered crystals at 110,000 lx·hrs (in words) [2]: almost no change
amount of remaining unaltered crystals, total irradiation amount 220,000 lx·hrs [2]: 97.5
amount of remaining unaltered crystals, total irradiation amount 530,000 lx·hrs [2]: 96.91
amount of remaining unaltered crystals, total irradiation amount 860,000 lx·hrs [2]: 95.37
amount of remaining unaltered crystals, total irradiation amount 1,280,000 lx·hrs ([2]; 1,280,000 lx·hrs): 95.11
change in the amount of crystals at 1,280,000 lx·hrs (in words) ([2]; 1,280,000 lx·hrs): found to decrease
amount of remaining unaltered crystals, INITIAL [2]: 98.83
SOLUBILITY ([3]; Methanesulfonate Salt): >10 mg/mL
SOLUBILITY ([3]; water, SOLUBILITY): ≥ 10 mg/mL

COc1c(N2C[C@H](CNC3CC3)[C@H](F)C2)c(F)cc2c(=O)c(C(=O)O)cn(CCF)c12 [FREE CRYSTALS, 7-{(3S,4S)-3-[(cyclopropylamino)methyl]-4-fluoropyrrolidine-1-yl}-6-fluoro-1-(2-fluoroethyl)-8-methoxy-4-oxo-1,4-dihydroquinoline-3-carboxylic acid]
amount of remaining unaltered crystals, INITIAL [1]: 95.18
amount of remaining unaltered crystals, 2 WEEKS CLOSED CONDITION ([1]; 40° C./75% RH, 2 weeks): 95.13
amount of remaining unaltered crystals, 2 WEEKS OPEN CONDITION ([1]; 40° C./75% RH, 2 weeks): 95.27
amount of remaining unaltered crystals, 4 WEEKS CLOSED CONDITION ([1]; 40° C./75% RH): 95.00
amount of remaining unaltered crystals, 4 WEEKS OPEN CONDITION ([1]; 40° C./75% RH): 95.35
amount of remaining unaltered crystals, total irradiation amount 110,000 lx·hrs [2]: 77.71
change in the amount of unaltered crystals at 110,000 lx·hrs (in words) [2]: significantly decrease
amount of remaining unaltered crystals, total irradiation amount 220,000 lx·hrs [2]: 75.31
amount of remaining unaltered crystals, total irradiation amount 530,000 lx·hrs [2]: 66.34
amount of remaining unaltered crystals, total irradiation amount 860,000 lx·hrs [2]: 49.82
amount of remaining unaltered crystals, total irradiation amount 1,280,000 lx·hrs ([2]; 1,280,000 lx·hrs): 44.85
reduction in the amount of crystals at 1,280,000 lx·hrs ([2]; 1,280,000 lx·hrs): ≥ 50%
amount of remaining unaltered crystals, INITIAL [2]: 96.12
SOLUBILITY [3]: <1 mg/mL
SOLUBILITY ([3]; water, SOLUBILITY): ≤ 1 mg/mL
